ChEMBL document CHEMBL1806363, “New substrate analogue furin inhibitors derived from 4-amidinobenzylamide” (Bioorg Med Chem Lett, 2011)

Target: Furin (Homo sapiens, UniProt P09958)
Assay: Inhibition of recombinant human furin expressed in CHO cells using pyroGlu- Arg-Thr-Lys-Arg-AMC as the substrate after 30 mins
Type: cell-based

Furin, sequence (P09958 whole entry): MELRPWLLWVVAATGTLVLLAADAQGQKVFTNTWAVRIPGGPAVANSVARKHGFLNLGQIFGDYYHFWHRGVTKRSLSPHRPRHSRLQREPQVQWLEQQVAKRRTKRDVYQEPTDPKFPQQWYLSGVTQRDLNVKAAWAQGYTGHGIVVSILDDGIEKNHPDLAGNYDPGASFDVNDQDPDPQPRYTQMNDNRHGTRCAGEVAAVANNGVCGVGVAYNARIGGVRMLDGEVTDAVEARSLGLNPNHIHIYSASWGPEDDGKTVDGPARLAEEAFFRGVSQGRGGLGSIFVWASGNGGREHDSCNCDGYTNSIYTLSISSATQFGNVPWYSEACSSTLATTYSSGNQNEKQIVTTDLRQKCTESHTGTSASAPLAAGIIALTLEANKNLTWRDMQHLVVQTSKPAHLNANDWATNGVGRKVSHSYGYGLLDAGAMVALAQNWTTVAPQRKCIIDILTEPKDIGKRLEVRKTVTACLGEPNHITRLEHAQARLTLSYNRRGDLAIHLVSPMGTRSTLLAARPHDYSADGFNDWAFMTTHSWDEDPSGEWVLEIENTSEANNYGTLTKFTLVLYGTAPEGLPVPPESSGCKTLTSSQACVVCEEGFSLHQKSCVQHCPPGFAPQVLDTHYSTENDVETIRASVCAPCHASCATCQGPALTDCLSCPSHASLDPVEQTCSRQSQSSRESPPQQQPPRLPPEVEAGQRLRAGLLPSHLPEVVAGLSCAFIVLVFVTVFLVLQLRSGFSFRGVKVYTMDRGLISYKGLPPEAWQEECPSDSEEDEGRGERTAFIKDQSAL

Compound | Ki [nM]
CC(C)[C@H](NC(=O)Cc1ccccc1)C(=O)N[C@H](CCCN=C(N)N)C(=O)N[C@@H](CCCN=C(N)N)C(=O)NCc1ccc(C(=N)N)cc1 | 7340
NC(N)=NCCC[C@H](NC(=O)[C@@H](CCCN=C(N)N)NC(=O)Cc1ccccc1)C(=O)O | 3200
CC(C)[C@H](NC(=O)[C@H](CCCN=C(N)N)NC(=O)Cc1ccccc1)C(=O)N[C@@H](CCCCN)C(=O)NCc1ccc(C(=N)N)cc1 | 1.5
N=C(N)c1ccc(CNC(=O)[C@H](CCCCN)NC(=O)[C@H](CN)NC(=O)[C@H](CCCN=C(N)N)NC(=O)Cc2ccccc2)cc1 | 3.7
